One data set relates to lymphocyte. The data set can be described thus: Single and multiple ascending dose studies in healthy subjects. Format: in vivo.
Data set [1] has as its system experimental autoimmune encephalomyelitis (EAE). As to conditions: up to day 25, when dosing was discontinued; cited from earlier work.
Data set [2] relates to collagen induced arthritis (CIA). As to conditions: cited from earlier work.
A further data set deals with chronic plaque psoriasis. The settings on record: cited from earlier work.

Consider `O=C(O)C[C@H]1CCc2c1[nH]c1ccc(OCc3ccc(C4CCCC4)c(C(F)(F)F)c3)cc21` [Compound 1, (R)-2-(7-(4-cyclopentyl-3-(trifluoromethyl)benzyloxy)-1,2,3,4-tetrahydrocyclopenta[b]indol-3-yl)acetic acid], for which the “lymphocyte lowering in healthy subjects” value with lymphocyte is “demonstrated the lymphocyte lowering capabilities”. Further, in data set [1], the “EAE disease onset and severity, prophylactic administration” value is “prevented the onset and severity of disease relative to vehicle”. The “ankle diameters in CIA” value in data set [2] (prophylactic daily oral dose, day 17, similar to fingolimod or methotrexate) is listed as “significant reduction in ankle diameters”. In addition, in data set [2] (rat, in vivo), the “histological parameters in knees and ankles of CIA rats” value was “Improvement in histological parameters”.
Consider `CCC/N=C1\S/C(=C\c2ccc(OC[C@H](O)CO)c(Cl)c2)C(=O)N1c1ccccc1C` [ponesimod], for which the “severity of chronic plaque psoriasis” value with chronic plaque psoriasis (chronic oral administration, phase 2) is reported as “reduce the severity of chronic plaque psoriasis”. Further, in the data set on chronic plaque psoriasis (phase 2 psoriasis study), the associated adverse events result was “dyspnea, elevated liver enzymes, bradycardia, headache and dizziness”.

Source of the values: patent publication US12097182B2, “Compounds and methods for treatment of inflammatory bowel disease with extra-intestinal manifestations” (Arena Pharmaceuticals, Inc., priority 2017, dated 2024).
